{
  "source": "patent US6716819B2",
  "about": "“Use of xylitol to reduce ionic strength and activate endogenous antimicrobials for prevention and treatment of infections” (University of Iowa Research Foundation, priority 2000, dated 2004)",
  "key": {"[1]": {"system": "non-CF epithelia", "experiment": "ASL Cl- concentration and volume (isotope method)", "assay_type": "cell-based, human", "procedure": "FIGS. 3(A-B). The effect of apical xylitol on non-CF and CF ASL Cl^− concentration and volume. Five μl of isosmotic xylitol or saline solution were applied to the apical surface. Twenty-four hours later, ASL Cl^− concentration (A) and volume (B) were determined. Asterisk indicates a difference between the saline and the xylitol solutions, p<0.05. N=15 to 18 from 3 CF and 3 non-CF specimens.\nAirway epithelial cells were isolated from tracheal and bronchial tissue. […] All epithelia were evaluated with scanning electron microscopy for the development of a ciliated apical surface.\nThe ASL Cl^− concentration was measured as previously described (Zabner, J., J. J. Smith, P. H. Karp, J. H. Widdicombe, and M. J. Welsh. 1998. Loss of CFTR chloride channels alters salt absorption by cystic fibrosis airway epithelia in vitro. Mol. Cell. 2:397-403). […] The ratio of ^36Cl to ^3H2O was determined by liquid scintillation. […] From these measurements, it was determined the ^3H2O activity per μl of water and the cpm of ^36Cl per mole of Cl^− in the basolateral medium. ASL volume was calculated from the ASL ^3H2O collected divided by the ratio of ^3H2O activity per μl of basolateral medium. Chloride content was calculated from the ASL ^36Cl collected divided by the ratio of ^36Cl per mole of Cl^− in the basolateral medium ASL Cl^− concentration was calculated from the Cl^− content divided by the volume of ASL. […]"}, "[2]": {"system": "P. aeruginosa", "experiment": "Growth in carbon-starved M9 media (O.D.)", "assay_type": "cell-based", "settings": "M9 media supplemented at 100 mM", "procedure": "(§1) FIGS. 5(A-G). […] A, B and C. Growth of P. aeruginosa (A), S. aureus, (B), and coagulase-negative Staphylococcus (C) were measured as O. D. M9 media alone is indicated by open triangle. Xylitol (closed circle), or succinate, mannitol, or sucrose (open circles), were added to M9 media at 100 mM as indicated. D. Nasal swabs were collected and cultured for 3 days in Lauria-Bertani media (open circles), in minimal M9 media (open squares), or in M9 media supplemented with 100 mM xylitol (closed circles). E, F and G. P. aeruginosa (E), S. aureus (F), and coagulase-negative Staphylococcus (G) were cultured in Lauria-Bertani media alone (open triangles), Lauria-Bertani media with 100 mM xylitol (closed circles), and Lauria-Bertani media containing tobramycin or levofloxacin (open circles).\n(§2) To test the effect of xylitol on growth of different airway pathogens in a carbon-starved media, P. aeruginosa, S. aureus, and coagulase-negative Staphylococcus were grown overnight in Lauria-Bertani medium. The bacteria were then centrifuged and resuspended in M9 media containing either 100 mM succinate, mannitol, or sucrose, respectively, and grown overnight at 37° C. The bacteria were centrifuged and resuspended in M9 media alone. M9 media containing 100 mM xylitol, or 100 mM of the indicated metabolizable sugar, as positive control. The optical density (O.D.) was measured after 0, 1, 2, and 4 hours at 600 nm on a Beckman DU640 Spectrophotometer (Schaumburg, Ill.). To test the antibiotic effect of xylitol, P. aeruginosa, S. aureus, and coagulase-negative Staphylococcus were grown overnight in Lauria-Bertani medium. The bacteria were then centrifuged and resuspended in Lauria-Bertani media with and without 100 mM xylitol. As a positive control, antibiotics with specific activity to each of the bacteria were added to the media (40 μg/ml tobramycin or 40 μg/ml levofloxacin)."}, "[3]": {"system": "coagulase-negative Staphylococcus", "experiment": "Growth in carbon-starved M9 media (O.D.)", "assay_type": "cell-based", "settings": "M9 media supplemented at 100 mM", "procedure": "as §1, §2"}},
  "data": [
    {"smiles": "OC[C@@H](O)[C@H](O)[C@@H](O)CO", "note": "[xylitol]", "values": [
      {"measurement": "estimated ASL volume", "setting": "[1]; 24 hours after 5 μl apical", "result": "increased"},
      {"measurement": "ASL Cl- concentration", "setting": "[1]; 24 hours after 5 μl isosmotic xylitol solution apical", "result": "34.2 ± 4.3", "unit": "mM"},
      {"measurement": "growth of P. aeruginosa", "setting": "[2]", "result": "no growth"},
      {"measurement": "growth of coagulase-negative Staphylococcus", "setting": "[3]", "result": "failed to support growth"}
    ]}
  ]
}
